Values of other authors in patent US20210121562A1, “PHARMACEUTICAL COMPOSITION FOR TREATMENT AND/OR PREVENTION OF CANCER” (TORAY INDUSTRIES, INC., priority 2018, published 2021).

Key:
basal cell cancer = basal cell cancer in patients having histories of rituximab administration for non-Hodgkin lymphoma
[1] = test system: extramammary Paget's disease; conditions: supportive care for extramammary Paget's disease

CC(C)Cn1cnc2c(N)nc3ccccc3c21 [imiquimod, 4-amino-1-(2-methylpropyl)-1H-imidazo[4,5-c]quinoline]
antitumor effect of imiquimod (basal cell cancer): attenuated
cases completely responded [1]: 7 out of 9
